Experimental findings from patent publication US12083109B2, “Neurokinin antagonists and uses thereof” (California Institute of Technology, priority 2017, dated 2024) are described below.

The target of one assay is T1, Nk3R (Mus musculus, UniProt P47937).
T1 sequence (P47937 1-452): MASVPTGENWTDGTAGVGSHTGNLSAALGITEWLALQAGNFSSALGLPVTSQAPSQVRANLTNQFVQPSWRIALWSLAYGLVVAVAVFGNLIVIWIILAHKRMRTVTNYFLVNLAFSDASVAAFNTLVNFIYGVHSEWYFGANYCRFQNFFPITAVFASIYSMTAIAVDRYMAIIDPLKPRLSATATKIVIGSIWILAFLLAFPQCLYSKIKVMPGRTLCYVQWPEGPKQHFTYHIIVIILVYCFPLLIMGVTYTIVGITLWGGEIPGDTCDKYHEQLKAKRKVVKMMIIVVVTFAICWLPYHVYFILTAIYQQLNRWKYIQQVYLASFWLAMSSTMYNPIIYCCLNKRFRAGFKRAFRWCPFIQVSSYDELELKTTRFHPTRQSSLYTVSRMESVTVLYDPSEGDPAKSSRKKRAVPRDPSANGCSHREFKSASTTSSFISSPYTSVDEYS
Nature of the assay: Looming disk assay (freezing, tail rattles, latency to orient), osanetant. The conditions noted are these: for SIS-induced increased tail rattling (looming disk assay) / SIS-induced persistent (post) freezing to looming disk: SIS mice; for SIS-induced increased tail rattling (looming disk assay): acute systemic osanetant; for acute (and thereby persistent) freezing to innate threatening stimulus (looming disk): osanetant injection into CeA. The class given is in vivo. The arrangement: from tissue; host or cells: Living mice (wild-type C57Bl6/N males, Charles River). The protocol:
Freezing behavior to presentation of an overhead looming disk proceeded as previously described (Kunwar et al., 2015; Yilmaz and Meister, 2013; incorporated by reference in their entirety). Briefly, mice were transported to a novel behavioral testing room. After 5 minutes of acclimation, mice were placed inside a novel, custom-built open top Plexiglas arena (48×48×30 cm) covered with a flat screen monitor placed directly above and with illumination provided by infrared LEDs (Marubeni). Mice were given a 5 minute baseline period in the arena, after which entry into the center of the arena triggered presentation of a single, 10 second overhead looming disk stimulus (comprised of a single looming disk presentation 0.5 seconds in duration, which was repeated 10 times with an inter-stimulus interval of 0.5 seconds). The stimulus was controlled by custom MATLAB code (M. Meister, Caltech) run on a dedicated computer in an adjacent room. Mice remained in the area for an additional 2 minutes before being transported back. Behavior was recorded using a video recorder attached to a laptop equipped with video capture software (Corel VideoStudio Pro). Acute freezing behavior to the looming disk (“during”) as well as in the 30 seconds following the last disk (“post”) were scored manually (Behavior Annotator, MATLAB) by an observer blind to environmental conditions.
(§1) Mice were administered the Nk3R antagonist osanetant (Axon Medchem, Axon 1533) either systemically or intra-brain region. Osanctant was dissolved in saline with 0.1% Tween 20 (vehicle). For systemic administration mice received an intraperitoneal (i.p.) injection (5 mg/kg) 20 minutes prior to behavioral testing. For microinfusions, guide cannulas were removed from mice and replaced with injector cannulas (Plastics One), which protruded 0.5 mm from the tip of the guide cannula. Injectors were attached to 5 μl Hamilton syringes with PE tubing (Plastics One) and mounted on a microinfusion pump (Harvard Apparatus) for controlled infusion of osanetant (0.3 μl vehicle with 375 ng dose per site injected over 6 minutes). For experiments using systemic administration of clozapine-N-oxide (CNO), CNO (Enzo Life Sciences-Biomol, BML-NS105-0005) was dissolved in saline (9 g/L NaCl) and injected (i.p.) at 5 mg/kg for hM4DREADD silencing or 2 mg/kg for hM3DREADD activation 20 minutes prior to behavioral testing. CNO was also administered chronically in drinking water (0.5 mg CNO/100 ml water).

The target of assay [1] is T2, hM3DREADD in Tac2+ neurons (Homo sapiens, UniProt P20309, A239G/Y149C).
T2 construct: host or cells: Tac2+ neurons of group-housed Tac2-Cre mice, transduced in vivo by intravenous AAV-PHP.B-hSyn-DIO-hM3D-mCherry, with or without the Tac2 cDNA virus
Nature of the assay: Behavioral assays in group housed Tac2-Cre mice, CNO activation (hM3DREADD) with or without Tac2 cDNA. It is filed as in vivo, mouse. The protocol:
The AAV-hSyn-DIO-Tac2-P2A-mCherry, AAV-hSyn-DIO-hM3D-mCherry, and AAV-hSyn-DIO-mCherry recombinant AAV genomes were separately packaged into the AAV-PHP.B capsid by triple transfection of HEK293T cells and purified with iodixanol step gradients as previously described (Deverman et al., 2016; incorporated by reference in its entirety). 5×10^11 vector genomes (vg) of each virus were administered intravenously (via the retro-orbital sinus) to Tac2-Cre animals individually or in combination. To equalize the amount of virus given to each mouse, 5×10^11 vg of AAV-PHP.B-hSyn-DIO-mCherry was administered to each animal to bring the amount of virus up to the amount injected in the double Tac2^+ hM3DREAAD group. Each animal received a total vector dose of 1×10^12 vg.
as §1
These viruses were intravenously injected (individually or in combination) into GH Tac2-Cre mice (FIGS. 14A-T). […]

Entries after “also recorded” stand apart in the source; their conditions may differ.

T2 sequence (P20309 whole entry Y149C/A239G): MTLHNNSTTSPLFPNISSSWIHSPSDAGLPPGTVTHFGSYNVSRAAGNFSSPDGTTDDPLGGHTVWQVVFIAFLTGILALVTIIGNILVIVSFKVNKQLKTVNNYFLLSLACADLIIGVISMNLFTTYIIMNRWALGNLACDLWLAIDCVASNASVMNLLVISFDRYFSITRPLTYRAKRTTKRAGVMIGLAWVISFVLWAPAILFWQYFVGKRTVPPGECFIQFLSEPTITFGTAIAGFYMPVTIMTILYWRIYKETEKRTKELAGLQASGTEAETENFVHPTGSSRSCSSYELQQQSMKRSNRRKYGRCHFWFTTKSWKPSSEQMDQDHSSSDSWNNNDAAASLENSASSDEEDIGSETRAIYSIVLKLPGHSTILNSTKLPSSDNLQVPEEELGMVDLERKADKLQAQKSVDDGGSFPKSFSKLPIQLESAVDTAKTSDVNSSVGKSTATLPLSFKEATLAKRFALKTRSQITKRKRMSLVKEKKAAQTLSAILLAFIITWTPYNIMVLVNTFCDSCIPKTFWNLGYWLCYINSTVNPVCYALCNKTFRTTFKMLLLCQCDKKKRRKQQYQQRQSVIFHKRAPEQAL

Regarding `CC(=O)N(C)C1(c2ccccc2)CCN(CCC[C@]2(c3ccc(Cl)c(Cl)c3)CCCN(C(=O)c3ccccc3)C2)CC1` [osanetant, N-(1-{3-[(3R)-1-benzoyl-3-(3,4-dichlorophenyl)piperidin-3-yl]propyl}-4-phenylpiperidin-4-yl)-N-methylacetamide], the “SIS-induced increased tail rattling (looming disk assay)” value is on record as “attenuated” at Nk3R and “blocked” on Nk3R (listed as Osanetant). Moreover, the “SIS-induced persistent (post) freezing to looming disk” value at Nk3R (osanetant 5 mg/kg i.p. 20 min before test) was “blocked”; at Nk3R (osanetant 5 mg/kg i.p. 20 min before test, listed as Osanetant), “attenuated”. In addition, on Nk3R (osanetant 5 mg/kg i.p. 20 min before test, between groups), the “freezing during presentation of looming disk (acute)” value was “no significant differences”. For the same compound, the “persistent freezing to looming disk” value on Nk3R (osanetant daily during two-week isolation, tested off-drug) is reported as “prevented”. For the same compound, the “acute (and thereby persistent) freezing to innate threatening stimulus (looming disk)” value is given as “reduced” at Nk3R and “selectively blocked” at Nk3R (listed as Osanetant). Also, the “SIS-induced persistent freezing to looming disk” value at Nk3R (osanetant microinfusion into ACC or striatum) is “failed to yield significant effects; also recorded: No significant effects”; at Nk3R (osanetant microinfusion into dBNSTa, 375 ng per site, 20 min before test), “selectively inhibited”; on Nk3R (osanetant microinfusion into dBNSTa, 375 ng per site, 20 min before test, listed as Osanetant), “selectively blocked”. Also, the “persistent responses to looming stimulus” value at Nk3R (osanetant microinfusion into DMH) is listed as “had no effect”.

Regarding `C[N+]1([O-])CCN(C2=Nc3cc(Cl)ccc3Nc3ccccc32)CC1` [CNO, clozapine-N-oxide], the “SIS-like behavioral effects (increased aggression, persistent freezing to threats)” value in assay [1] (group housed Tac2-Cre mice, Tac2 cDNA plus hM3DREADD viruses, CNO in drinking water 2 weeks and 2 mg/kg i.p. before test) is on record as “recapitulated key behavioral effects of SIS”. Moreover, the SIS-like behavioral effects result in assay [1] (group housed Tac2-Cre mice, activation of Tac2+ neurons on its own (hM3DREADD, CNO)) is “insufficient”; in assay [1] (group housed control mice, mCherry-only virus, treated with CNO), “No such effects”.
